# Measurements published in patent publication US11078170B2 (Assembly Biosciences, Inc., priority 2017, dated 2021).
# System: HBV viral production from HepAD38 cells
# Assay: Activity of test compounds on viral production from HepAD38 cells (viral load by qPCR of HBV core sequence in supernatant)
# Format: cell-based
# Conditions: Hepatitis B virus, 120 h, 5 days incubation, HBV DNA in supernatant by qPCR, top concentration 10 μM, read-out: Viral Load EC50 Activity range
# How it was run: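 EC50 and CC50 come from four-parameter fits of supernatant viral load and CellTiter-Glo viability, respectively. Viral load was measured by core-region TaqMan qPCR against HBV DNA standards and compared with DMSO controls. Tet-free HepAD38 cells (50,000/well, 2% FBS) were exposed to compound, highest 10 μM, for 5 days at 37° C.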
row,Structure (SMILES),EC50 [nM]
1,"Cc1cc(C2CC(C(=O)Nc3ccc(F)c(Cl)c3)N(C)S(=O)(=O)N2)sc1-c1cnn(C)c1 (racemic) [HBV-CSU-300, Cis-N-(3-Chloro-4-fluorophenyl)-5-(4-methyl-5-(1-methyl-1H-pyrazol-4-yl)thiophen-2-yl)-2-methyl-1,2,6-thiadiazinane-3-carboxamide 1,1-dioxide]",< 1000
2,"Cc1sc(C2CC(C(=O)Nc3ccc(F)c(Cl)c3)N(C)S(=O)(=O)N2)cc1-c1cnn(C)c1 (racemic) [HBV-CSU-304, Cis-N-(3-Chloro-4-fluorophenyl)-2-methyl-5-(5-methyl-4-(1-methyl-1H-pyrazol-4-yl)thiophen-2-yl)-1,2,6-thiadiazinane-3-carboxamide 1,1-dioxide]",< 1000
3,"CCc1sc(C2CC(C(=O)Nc3ccc(F)c(Cl)c3)N(C)S(=O)(=O)N2)cc1-c1cnn(C)c1 (racemic) [HBV-CSU-305, Cis-N-(3-Chloro-4-fluorophenyl)-5-(5-ethyl-4-(1-methyl-1H-pyrazol-4-yl)thiophen-2-yl)-2-methyl-1,2,6-thiadiazinane-3-carboxamide 1,1-dioxide]",< 1000
4,"Cc1c(-c2ccc(C3CC(C(=O)Nc4ccc(F)c(Cl)c4)N(C)S(=O)(=O)N3)s2)cnn1C (racemic) [HBV-CSU-312, Cis-N-(3-chloro-4-fluorophenyl)-5-(5-(1,5-dimethyl-1H-pyrazol-4-yl)thiophen-2-yl)-2-methyl-1,2,6-thiadiazinane-3-carboxamide 1,1-dioxide]",< 1000
5,"Cc1nn(C)c(C)c1-c1csc(C2CC(C(=O)Nc3ccc(F)c(Cl)c3)N(C)S(=O)(=O)N2)c1 (racemic) [HBV-CSU-317, Cis-N-(3-chloro-4-fluorophenyl)-2-methyl-5-(4-(1,3,5-trimethyl-1H-pyrazol-4-yl)thiophen-2-yl)-1,2,6-thiadiazinane-3-carboxamide 1,1-dioxide]",< 1000
6,"CN1C(C(=O)Nc2ccc(F)c(Cl)c2)CC(c2ccc(-c3ncn(C)n3)s2)NS1(=O)=O (racemic) [HBV-CSU-322, Cis-N-(3-Chloro-4-fluorophenyl)-2-methyl-5-(5-(1-methyl-1H-1,2,4-triazol-3-yl)thiophen-2-yl)-1,2,6-thiadiazinane-3-carboxamide 1,1-dioxide]",< 1000
7,"CN1C(C(=O)Nc2ccc(F)c(Cl)c2)CC(c2ccc(-c3ncnn3C)s2)NS1(=O)=O (racemic) [HBV-CSU-323, Cis-N-(3-Chloro-4-fluorophenyl)-2-methyl-5-(5-(1-methyl-1H-1,2,4-triazol-5-yl)thiophen-2-yl)-1,2,6-thiadiazinane-3-carboxamide 1,1-dioxide]",< 1000
8,"CN1C(C(=O)Nc2ccc(F)c(Cl)c2)CC(c2ccc(-c3nncn3C)s2)NS1(=O)=O (racemic) [HBV-CSU-324, Cis-N-(3-Chloro-4-fluorophenyl)-2-methyl-5-(5-(4-methyl-4H-1,2,4-triazol-3-yl)thiophen-2-yl)-1,2,6-thiadiazinane-3-carboxamide 1,1-dioxide]",< 1000
9,"CN1C(C(=O)Nc2ccc(F)c(Cl)c2)CC(c2cc(-c3cnn(C(F)(F)F)c3)cs2)NS1(=O)=O (racemic) [HBV-CSU-325, Cis-N-(3-Chloro-4-fluorophenyl)-2-methyl-5-(4-(1-(trifluoromethyl)-1H-pyrazol-4-yl)thiophen-2-yl)-1,2,6-thiadiazinane-3-carboxamide 1,1-dioxide]",< 1000
10,"CN1C(C(=O)Nc2ccc(F)c(Cl)c2)CC(c2cc(-c3ncn(C)n3)cs2)NS1(=O)=O (racemic) [HBV-CSU-326, Cis-N-(3-chloro-4-fluorophenyl)-2-methyl-5-(4-(1-methyl-1H-1,2,4-triazol-3-yl)thiophen-2-yl)-1,2,6-thiadiazinane-3-carboxamide 1,1-dioxide]",< 1000
11,"CN1C(C(=O)Nc2ccc(F)c(Cl)c2)CC(c2cc(-c3ncnn3C)cs2)NS1(=O)=O (racemic) [HBV-CSU-327, Cis-N-(3-Chloro-4-fluorophenyl)-2-methyl-5-(4-(1-methyl-1H-1,2,4-triazol-5-yl)thiophen-2-yl)-1,2,6-thiadiazinane-3-carboxamide 1,1-dioxide]",< 1000
12,"CN1C(C(=O)Nc2ccc(F)c(Cl)c2)CC(c2cc(-c3nncn3C)cs2)NS1(=O)=O (racemic) [HBV-CSU-328, Cis-N-(3-chloro-4-fluorophenyl)-2-methyl-5-(4-(4-methyl-4H-1,2,4-triazol-3-yl)thiophen-2-yl)-1,2,6-thiadiazinane-3-carboxamide 1,1-dioxide]",< 1000
13,"CN1C(C(=O)Nc2ccc(F)c(Cl)c2)CC(c2ccc3c(c2)ncn3C)NS1(=O)=O (racemic) [HBV-CSU-360, Cis-N-(3-chloro-4-fluorophenyl)-2-methyl-5-(1-methyl-1H-benzo[d]imidazol-5-yl)-1,2,6-thiadiazinane-3-carboxamide 1,1-dioxide]",< 1000
14,"CN1C(C(=O)Nc2ccc(F)c(Cl)c2)CC(c2nc3ccccc3s2)NS1(=O)=O (racemic) [HBV-CSU-364, Cis-5-(benzo[d]thiazol-2-yl)-N-(3-chloro-4-fluorophenyl)-2-methyl-1,2,6-thiadiazinane-3-carboxamide 1,1-dioxide]",< 1000
15,"[2H]C([2H])([2H])N1C(C(=O)Nc2ccc(F)c(Cl)c2)CC(c2ccc(Br)s2)NS1(=O)=O (racemic) [HBV-CSU-370, Cis-5-(5-bromothiophen-2-yl)-N-(3-chloro-4-fluorophenyl)-2-(methyl-d3)-1,2,6-thiadiazinane-3-carboxamide 1,1-dioxide]",< 1000
16,"CN(C)CCN1[C@@H](c2cccs2)C[C@@H](C(=O)Nc2ccc(F)c(Cl)c2)N(C)S1(=O)=O (relative stereo) [HBV-CSU-043-ISO-I, Cis-N-(3-chloro-4-fluorophenyl)-6-(2-(dimethylamino)ethyl)-2-methyl-5-(thiophen-2-yl)-1,2,6-thiadiazinane-3-carboxamide 1,1-dioxide]",> 5000
17,"CN1[C@@H](C(=O)Nc2ccc(F)c(Cl)c2)C[C@@H](c2ccsn2)NS1(=O)=O (relative stereo) [HBV-CSU-056-ISO-II, Cis-N-(3-chloro-4-fluorophenyl)-5-(isothiazol-3-yl)-2-methyl-1,2,6-thiadiazinane-3-carboxamide 1,1-dioxide]",> 5000
18,"CC(C)(C)OCCN1[C@@H](C(=O)Nc2ccc(F)c(Cl)c2)C[C@@H](c2nccs2)NS1(=O)=O (relative stereo) [HBV-CSU-071-ISO-II, Cis-2-(2-(tert-Butoxy)ethyl)-N-(3-chloro-4-fluorophenyl)-5-(thiazol-2-yl)-1,2,6-thiadiazinane-3-carboxamide 1,1-dioxide]",1000 to 5000
19,"C#CCN1[C@H](C(=O)Nc2ccc(F)c(Cl)c2)C[C@H](c2nccs2)NS1(=O)=O (relative stereo) [HBV-CSU-089-ISO-I, Cis-N-(3-chloro-4-fluorophenyl)-2-(prop-2-yn-1-yl)-5-(thiazol-2-yl)-1,2,6-thiadiazinane-3-carboxamide 1,1-dioxide]",< 1000
20,"O=C(Nc1ccc(F)c(Cl)c1)[C@H]1C[C@@H](c2nccs2)NS(=O)(=O)N1CCOCc1ccccc1 (relative stereo) [HBV-CSU-095-ISO-I, Cis-2-(2-(benzyloxy)ethyl)-N-(3-chloro-4-fluorophenyl)-5-(thiazol-2-yl)-1,2,6-thiadiazinane-3-carboxamide 1,1-dioxide]",1000 to 5000
21,"O=C(Nc1ccc(F)c(Cl)c1)[C@@H]1C[C@H](c2nccs2)NS(=O)(=O)N1CCO (relative stereo) [HBV-CSU-097-ISO-II, Cis-N-(3-Chloro-4-fluorophenyl)-2-(2-hydroxyethyl)-5-(thiazol-2-yl)-1,2,6-thiadiazinane-3-carboxamide 1,1-dioxide]",> 5000
22,"CCN(CC)CCCN1[C@H](C(=O)Nc2ccc(F)c(Cl)c2)C[C@H](c2nccs2)NS1(=O)=O (relative stereo) [HBV-CSU-101-ISO-II, Cis-N-(3-Chloro-4-fluorophenyl)-2-(3-(diethylamino)propyl)-5-(thiazol-2-yl)-1,2,6-thiadiazinane-3-carboxamide 1,1-dioxide]",> 5000
23,"CN1[C@@H](C(=O)Nc2ccc(F)c(Cl)c2)C[C@@H](c2ccc(-c3ccccc3)s2)NS1(=O)=O (relative stereo) [HBV-CSU-116-ISO-II, Cis-N-(3-chloro-4-fluorophenyl)-2-methyl-5-(5-phenylthiophen-2-yl)-1,2,6-thiadiazinane-3-carboxamide 1,1-dioxide]",1000 to 5000
24,"CCOCCN1[C@H](C(=O)Nc2ccc(F)c(Cl)c2)C[C@H](c2nccs2)NS1(=O)=O (relative stereo) [HBV-CSU-142-ISO-II, Cis-N-(3-Chloro-4-fluorophenyl)-2-(2-ethoxyethyl)-5-(thiazol-2-yl)-1,2,6-thiadiazinane-3-carboxamide 1,1-dioxide]",< 1000
25,"CN1[C@@H](C(=O)Nc2ccc(F)c(Cl)c2)C[C@@H](c2ccc(-c3ccc(NS(C)(=O)=O)cc3)s2)NS1(=O)=O (relative stereo) [HBV-CSU-163-ISO-II, Cis-N-(3-chloro-4-fluorophenyl)-2-methyl-5-(5-(4-(methylsulfonamido)phenyl)thiophen-2-yl)-1,2,6-thiadiazinane-3-carboxamide 1,1-dioxide]",< 1000
26,"CN1[C@@H](C(=O)Nc2ccc(F)c(Cl)c2)C[C@@H](c2ncc(-c3ccc(NS(C)(=O)=O)cc3)s2)NS1(=O)=O (relative stereo) [HBV-CSU-179, Cis-N-(3-Chloro-4-fluorophenyl)-2-methyl-5-(5-(4-(methylsulfonamido)phenyl)thiazol-2-yl)-1,2,6-thiadiazinane-3-carboxamide 1,1-dioxide]",< 1000
27,"CN1[C@H](C(=O)Nc2ccc(F)c(Cl)c2)C[C@H](c2ccc(OCC(=O)O)cc2)NS1(=O)=O (relative stereo) [HBV-CSU-216-ISO-I, Cis-2-(4-(5-((3-Chloro-4-fluorophenyl)carbamoyl)-6-methyl-1,1-dioxido-1,2,6-thiadiazinan-3-yl)phenoxy)acetic acid]",1000 to 5000
